Legend:
[1] = system: PC-9 ERO1α knockout clones; experiment: Soft agar clonogenic assay, PC-9 ERO1α knockout clones; format: cell-based; conditions: 14 days, 3.75-15 μM
Method: We utilized an MTT assay to determine the potency of the compounds for inhibiting cell growth. […] We next asked whether T151742 induced inhibition of cell growth was dependent on ERO1α expression. As shown in FIG. 6C two ERO1α deleted clones in the PC-9 cell line were isolated. Using an MTT assay to determine overall cellar viability, a non-targeted control (scramble), and both ERO1α knockout clones was subjected to treatment with T151742 for 72 hours (See FIG. 6D). […] Though only slight differences were observed between T151742 and EN-460 we tested the effects of these compounds in a clonogenic assay which is a better test for inhibition of self-renewal.
FIG. 7A and FIG. 7B show 1000 cells/well were plated in a 12-well plate in triplicate with either 0.5% DMSO, T151742, or EN-460 and allowed to form colonies for 14 days. Colonies were subsequently stained with 0.01% Crystal Violet, imaged, and quantified using ImageJ. […] Colonies were stained with 0.01% Crystal Violet, imaged, and quantified using ImageJ.
Cell Lines: PC-9 cell line used was obtained from Sigma Aldrich and grown in RPMI 1640 medium with 10% fetal bovine serum and 1% penicillin/streptomycin. […] Plate was then read on the BioTek Cytation 5 at 530/590 nm. […] Plate was then read at 570 nm. […] Images were then quantified using ImageJ. […]

[2] = target: LSD-1 (Homo sapiens, UniProt O60341); experiment: LSD-1 inhibitor screening assay kit (demethylase activity); format: biochemical; conditions: at concentrations ≤25 μM
Source text: T151742 was used to generate a concentration response. […] Experiments performed in triplicates and shown is the mean and standard deviation of three independent experiments.

[3] = target: T1, MAO-B (Homo sapiens, UniProt P27338); conditions: cited from earlier work
T1 sequence (P27338 1-520): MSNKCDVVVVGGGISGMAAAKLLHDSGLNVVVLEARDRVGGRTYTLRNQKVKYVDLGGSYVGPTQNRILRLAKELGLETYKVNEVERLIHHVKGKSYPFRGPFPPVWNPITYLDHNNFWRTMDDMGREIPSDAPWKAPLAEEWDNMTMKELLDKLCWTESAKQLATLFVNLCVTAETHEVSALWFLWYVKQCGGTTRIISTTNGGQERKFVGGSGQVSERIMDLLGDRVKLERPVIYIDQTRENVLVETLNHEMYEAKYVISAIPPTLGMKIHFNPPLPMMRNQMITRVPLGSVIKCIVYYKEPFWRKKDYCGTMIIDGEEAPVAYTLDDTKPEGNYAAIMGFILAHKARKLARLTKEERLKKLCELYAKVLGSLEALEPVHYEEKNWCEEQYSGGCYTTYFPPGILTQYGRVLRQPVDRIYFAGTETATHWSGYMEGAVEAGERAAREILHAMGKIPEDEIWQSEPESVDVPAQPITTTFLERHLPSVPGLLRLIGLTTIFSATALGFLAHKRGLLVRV

CN(C)c1ccc(/C=C2\Oc3cc(O)ccc3C2=O)cc1 [Compound T151742]
sensitivity of ERO1α knockout clones in clonogenic assay [1]: completely resistant | inhibition of LSD-1 demethylase activity [2]: did not inhibit | inhibition of / activity against MAO-B [3]: showed activity
